Data on 34 molecules can be found in ChEMBL document CHEMBL4000234, “Synthesis and antiviral evaluation of novel heteroarylpyrimidines analogs as HBV capsid effectors” (Bioorg Med Chem Lett, 2017).

For one data set, the system named is PBMC. In words: (§1) Cytotoxicity against human PBMC assessed as growth inhibition by CellTiter 96 non-radioactive cell proliferation colorimetric assay. The class given is cell-based.
Another data set deals with Vero. Kind of data set: (§2) Cytotoxicity against African green monkey Vero cells assessed as growth inhibition by CellTiter 96 non-radioactive cell proliferation colorimetric assay. The class given is cell-based. The conditions noted are these: chlorocebus sabaeus, vero.
For a further data set, the system named is Hepatitis B virus. Kind of data set: Antiviral activity against HBV infected in human HepAD38 cells assessed as inhibition of DNA replication after 5 days by RT-PCR method. The class given is functional, cell-based. The conditions noted are these: HePAD38, 120 h.
For another data set, the system named is CCRF-CEM. In words: (§3) Cytotoxicity against human CEM cells assessed as growth inhibition by CellTiter 96 non-radioactive cell proliferation colorimetric assay. It counts as cell-based. To be noted: ccrf-cem.
For a further data set, the system named is HepG2. Kind of data set: (§4) Cytotoxicity against human HepG2 cells assessed as growth inhibition by CellTiter 96 non-radioactive cell proliferation colorimetric assay. It counts as cell-based. To be noted: hepg2.
A short description of data set [1]: as §1. It counts as cell-based.
Data set [2] in a line: as §2. It counts as cell-based. The conditions noted are these: chlorocebus sabaeus, Vero cells.
Data set [3] is described as follows: as §3. The class given is cell-based, CCRF-CEM. The conditions noted are these: CEM cells (CCRF-CEM).
Data set [4] is described as follows: as §4. The class given is cell-based. To be noted: HepG2 cells.

As usually defined, the CC50 is the concentration that lowers cell viability or growth by half. What is called EC50 is the concentration at which the effect is half-maximal. As to `COCCOCc1nc(-c2ccccn2)nc(Cc2ccccc2)c1C(=O)OC`, the CC50 with PBMC is 99 µM; in the data set with Vero, 87 µM; in the data set on CCRF-CEM it was 55 µM; with HepG2, at least 100 µM. Moreover, in the data set on Hepatitis B virus, the EC50 was above 10 µM.
On the same counts, the results for `CC(=O)NC1=C(CN2CCOCC2)NC(c2ccccn2)=NC1c1ccc(F)cc1Cl` (stereo unspecified) are 28 µM, 18 µM, 69 µM, above 100 µM and above 10 µM.
For `CC1=C(Br)C(c2ccc(F)cc2Cl)N=C(c2ccccn2)N1` (stereo unspecified) the same measures were above 100 µM, 16 µM, 23 µM, 79 µM and 5.2 µM.
Regarding `Fc1ccc(C2N=C(c3nccs3)NC(CN3CCOCC3)=C2I)c(Br)c1` (stereo unspecified), the CC50 was 75 µM in the data set on PBMC, above 100 µM in the data set on Vero, 33 µM in the data set with CCRF-CEM and above 100 µM in the data set on HepG2. The EC50 in the data set on Hepatitis B virus amounted to 5.7 µM.
For the molecule `COC(=O)C1=C(Cn2cc[n+](C)c2)NC(c2ccccn2)=NC1c1ccc(F)cc1Cl` (stereo unspecified), the CC50 with PBMC was 44 µM; with Vero, above 100 µM; with CCRF-CEM, 23 µM; in the data set on HepG2, above 100 µM. Also, in the data set with Hepatitis B virus, the EC50 was above 10 µM.
Take `CC1=C(I)C(c2ccc(F)cc2Br)N=C(c2nccs2)N1` (stereo unspecified): the CC50 in the data set with PBMC was 80 µM; in the data set with Vero, above 100 µM; in the data set with CCRF-CEM, 33 µM; in the data set on HepG2, above 100 µM. Further, in the data set with Hepatitis B virus, the EC50 came to 7.1 µM.
Consider `Fc1ccc(C2N=C(c3ccccn3)NC(CN3CCOCC3)=C2I)c(Cl)c1` (stereo unspecified), for which the CC50 with PBMC is above 100 µM; with Vero, 45 µM; in the data set on CCRF-CEM it was 11 µM; with HepG2, above 100 µM. Further, the EC50 in the data set with Hepatitis B virus was 4 µM.
On to `CCCC[n+]1ccn(CC2=C(C(=O)OC)C(c3ccc(F)cc3Cl)N=C(c3ccccn3)N2)c1` (stereo unspecified), for which the CC50 is 20 µM in the data set on PBMC, above 100 µM in the data set on Vero, 3 µM in the data set on CCRF-CEM and 14 µM with HepG2. For the same molecule, the EC50 with Hepatitis B virus is above 10 µM.
On the same counts, the results for `COC(=O)C1=C(CN2CCN(C)CC2)NC(c2ccccn2)=NC1Cc1ccccc1` (stereo unspecified) are above 100 µM, 76 µM, 17 µM, 14 µM and above 10 µM.
On the same counts, the results for `CCOP(=O)(CC1=C(C(=O)OC)C(c2ccc(F)cc2Cl)N=C(c2ccccn2)N1)OCC` (stereo unspecified) are 65 µM, 43 µM, 15 µM, above 100 µM and above 10 µM.
On the same counts, the results for `CCS(=O)(=O)CC1=C(C(=O)OC)C(c2ccc(F)cc2Cl)N=C(c2ccccn2)N1` (stereo unspecified) are above 100 µM, above 100 µM, 39 µM, above 100 µM and above 10 µM.
With `CC1(C)CC(=O)C2=C(C1)NC(c1cccnc1)=NC2c1ccc(F)cc1Cl` (racemic), the CC50 with PBMC, with Vero, in the data set with CCRF-CEM and with HepG2 was above 100 µM each time. In addition, the EC50 in the data set with Hepatitis B virus is above 10 µM.
As for `COC(=O)c1c(Cc2ccc(F)cc2Cl)nc(-c2ccccn2)nc1CN1CCOCC1`, the CC50 came out at 34 µM in the data set with PBMC, 71 µM in the data set on Vero, 11 µM in the data set with CCRF-CEM and 69 µM with HepG2. The EC50 in the data set with Hepatitis B virus was above 10 µM.
With `COC(=O)C1=C(CS(=O)(=O)Cc2ccc(C)cc2)NC(c2ccccn2)=NC1c1ccc(F)cc1Cl` (stereo unspecified), the CC50 with PBMC was 67 µM; in the data set on Vero it was at least 100 µM; with CCRF-CEM, 47 µM; in the data set on HepG2, above 100 µM. Besides, the EC50 in the data set with Hepatitis B virus was above 10 µM.
Consider `CCOC(=O)C1=C(CN2CCOCC2)NC(c2nccs2)=NC1c1ccc(F)cc1Br` (racemic), for which the EC50 with Hepatitis B virus was determined as 0.3 µM.
Take `COC(=O)C1=C(CN2CCOCC2)NC(c2ccccn2)=NC1c1ccc(F)cc1Cl` (racemic): the CC50 in the data set on PBMC, with Vero, in the data set on CCRF-CEM and in the data set on HepG2 was above 100 µM each time. Further, in the data set on Hepatitis B virus, the EC50 was in the range of 0.45 to 0.5 µM.
Take `CC1=C(C(=O)SC(C)C)C(c2ccc(F)cc2Cl)N=C(c2ccccn2)N1` (stereo unspecified): the CC50 in the data set on PBMC is 31 µM; in the data set with Vero, 40 µM; with CCRF-CEM, 13 µM; with HepG2, above 100 µM. For the same molecule, the EC50 in the data set on Hepatitis B virus is above 10 µM.
In the case of `COC(=O)C1=C(CN=[N+]=[N-])NC(c2ccccn2)=NC1c1ccc(F)cc1Cl` (stereo unspecified), the CC50 in the data set with PBMC was above 100 µM; with Vero, 56 µM; in the data set on CCRF-CEM, above 100 µM; in the data set on HepG2 it was above 100 µM. The EC50 in the data set with Hepatitis B virus worked out at 5.3 µM.
Consider `CC1(C)CC(=O)c2c(Cc3ccc(F)cc3Cl)nc(-c3ccncc3)nc2C1`, for which the CC50 was above 100 µM in the data set on PBMC, 10 µM in the data set with Vero, at least 100 µM with CCRF-CEM and at least 100 µM in the data set on HepG2. In addition, the concentration for a half-maximal effect (EC50) in the data set on Hepatitis B virus is above 10 µM.
With `COC(=O)c1c(C)nc(-c2ccccn2)nc1Cc1ccccc1`, the CC50 was determined as 67 µM in the data set with PBMC, 61 µM with Vero, 4 µM with CCRF-CEM and 41 µM in the data set with HepG2. Besides, in the data set on Hepatitis B virus, the EC50 was above 10 µM.
In the case of `CC1=C(C(=O)NS(=O)(=O)N(C)C)C(c2ccc(F)cc2Cl)N=C(c2ccccn2)N1` (stereo unspecified), the CC50 with PBMC is above 100 µM; with Vero, at least 100 µM; in the data set with CCRF-CEM, above 100 µM; with HepG2, above 100 µM. Further, the EC50 with Hepatitis B virus is above 10 µM.
For the molecule `CC1=C(Cl)C(c2ccc(F)cc2Cl)N=C(c2ccccn2)N1` (stereo unspecified), the CC50 in the data set on PBMC was above 100 µM; in the data set on Vero, 13 µM; in the data set on CCRF-CEM, 44 µM; with HepG2, 98 µM. For the same molecule, in the data set with Hepatitis B virus, the EC50 is above 10 µM.
For `COC(=O)C1=C(CSc2ccccc2)NC(c2ccccn2)=NC1Cc1ccccc1` (stereo unspecified), the CC50 in the data set on PBMC is above 100 µM; with Vero it was above 100 µM; with CCRF-CEM it was 5 µM; in the data set on HepG2, 96 µM. Further, the EC50 in the data set with Hepatitis B virus was above 10 µM.
As to `COC(=O)c1c(Cc2ccccc2)nc(-c2ccccn2)nc1CN1CCN(C)CC1`, the CC50 is above 100 µM in the data set on PBMC, above 100 µM in the data set with Vero, 86 µM in the data set with CCRF-CEM and above 100 µM in the data set on HepG2. The EC50 in the data set with Hepatitis B virus is above 10 µM.
Regarding `CC1(C)CC(=O)c2c(Cc3ccc(F)cc3Cl)nc(-c3ccccn3)nc2C1`, the CC50 was found to be 69 µM in the data set on PBMC, 29 µM with Vero, 9 µM with CCRF-CEM and 42 µM in the data set on HepG2. Moreover, the EC50 with Hepatitis B virus was above 10 µM.
For `CC1(C)CC(=O)c2c(Cc3ccccc3)nc(-c3ccccn3)nc2C1` the same measures were 43 µM, 53 µM, 21 µM, 47 µM and above 10 µM.
With `Nc1ccn([C@@H]2CS[C@H](CO)O2)c(=O)n1` [LAMIVUDINE], the CC50 in data set [1] is above 100 µM; in [2], above 100 µM; in data set [3], above 100 µM; in [4], 10 to 100 µM. Also, the EC50 in the data set with Hepatitis B virus came out at 0.04 µM.
Turning to `COC(=O)c1c(Cc2ccccc2)nc(-c2ccccn2)nc1CN1CCOCC1`, the CC50 is 81 µM in the data set on PBMC, 59 µM in the data set with Vero, 2 µM with CCRF-CEM and above 100 µM in the data set with HepG2. For the same molecule, the EC50 in the data set on Hepatitis B virus is above 10 µM.
For the molecule `CC1=C(C(=O)OCC(F)(F)F)C(c2ccc(F)cc2Cl)N=C(c2ccccn2)N1` (stereo unspecified), the CC50 was above 100 µM in the data set with PBMC, 65 µM in the data set on Vero, 4 µM in the data set with CCRF-CEM and above 100 µM in the data set with HepG2. Besides, in the data set with Hepatitis B virus, the EC50 was above 10 µM.
In the case of `COC(=O)C1=C(C)NC(c2ccccn2)=NC1Cc1ccccc1` (stereo unspecified), the CC50 was 52 µM with PBMC, above 100 µM in the data set on Vero, 61 µM in the data set with CCRF-CEM and above 100 µM in the data set on HepG2. The EC50 in the data set with Hepatitis B virus was above 10 µM.
Consider `COC(=O)c1c(CSc2ccccc2)nc(-c2ccccn2)nc1Cc1ccccc1`, for which the CC50 in the data set on PBMC was 65 µM; in the data set on Vero, 12 µM; in the data set on CCRF-CEM, 9 µM; in the data set on HepG2, above 100 µM. In addition, the EC50 in the data set on Hepatitis B virus is above 10 µM.
For `CC1(C)CC(=O)c2c(Cc3ccc(F)cc3Cl)nc(-c3cccnc3)nc2C1` the same measures were above 100 µM, at least 100 µM, 86 µM, above 100 µM and above 10 µM.
For `CC1=C(I)C(c2ccc(F)cc2Cl)N=C(c2ccccn2)N1` (stereo unspecified) the same measures were 80 µM, 29 µM, 74 µM, above 100 µM and 4.1 µM.
On the same counts, the results for `CC(=O)NC1=C(C)NC(c2ccccn2)=NC1c1ccc(F)cc1Cl` (stereo unspecified) are above 100 µM, above 100 µM, above 100 µM, 80 µM and above 10 µM.
